Here are results for two compounds from US8119640B2, “Hedgehog pathway antagonists methods of use” (The Board of Trustees of the Leland Stanford Junior …, priority 2008, dated 2012).

In experiment [1] the target is Smo (Mus musculus, UniProt P56726). As to the kind of experiment: BODIPY-cyclopamine/Smo binding assay. More on the design: expressed in transfected cells; host or cells: HEK-293T; species or system murine. As to conditions: 5 nM BODIPY-cyclopamine, Smo-overexpressing HEK-293T cells, HPIs 20 μM. On the procedure:
BODIPY-cyclopamine/Smo binding assay. Smo-binding assays were conducted with BODIPY-cyclopamine and Smooverexpressing and HEK-293T cells as previously described, using a CMV-promoter based SV40 origin-containing expression construct for Smo-Myc3 (murine Smo containing three consecutive Myc epitopes at the C-terminus). […] The cells were cultured until they reached 55 to 65% confluency (14-18 h), after which they were transfected with the Smo-Myc3 expression construct and FuGENE (Roche) according to the manufacturer's protocols. 24 h after transfection, the cells were washed with phosphate-buffered saline (PBS) and cultured in DMEM containing 0.5% FBS, 5 nM BODIPY-cyclopamine, and individual HPIs (20 μM). After 30 min, 10 μM Hoescht 33342 was added to each well, and the HPIs were incubated with the cells for an additional 60 min. The cells were then washed two times with PBS buffer, mounted in Prolong Gold (Invitrogen) and immediately imaged using a DM4500B compound microscope (Leica).

Experiment [2] relates to C3H10T(1/2) cells. The experiment is described as follows: C3H10T(1/2) assay for Hh pathway activation (alkaline phosphatase). Format: cell-based. As to conditions: Mus musculus, C3H 10T1/2; Shh-induced differentiation, alkaline phosphatase; read-out: IC50 (uM) Shh/C3H10T[1/2] cells. The protocol:
C3H10T(1/2) assay for Hh pathway activation. C3H10T(1/2) cells (ATCC) were plated into 96-well plates using DMEM containing 10% FBS, 100 U/mL penicillin, 0.1 mg/mL streptomycin, 5% Shh-N-conditioned medium, and various concentrations of the Hh pathway inhibitors. After approximately 40 h, the cells were washed with PBS and lysed in 50 μL of buffer containing 50 mM Tris-HCl, pH 9.5, 150 mM NaCl, 5 mM MgCl2, and 1% Triton X-100. Alkaline phosphatase activities in the cell lysates were quantified by adding 10 μL of the lysate to 50 μL of CDP-Star chemiluminescence reagent (Perkin Elmer) and measuring the resulting chemiluminescence on a Veritas microplate luminometer.

The test system of experiment [3] is Hh pathway. As to the kind of experiment: Shh-LIGHT2 assay for Hh pathway activation (Gli-dependent firefly luciferase). Format: cell-based. As to conditions: Shh Light2. The protocol: Shh-LIGHT2 assay for Hh pathway activation and library screening conditions. h-N-conditioned medium was prepared as previously described. […] For 96-well plate assays, Shh-LIGHT2 cells were seeded into each plate (10,000 cells/well) and cultured to confluency. The Shh-LIGHT2 cells were then grown in DMEM containing 0.5% CS, 100 U/mL penicillin, 0.1 mg/mL streptomycin, either 5% Shh-N-conditioned medium or 500 nM SAG, and various concentrations of the HPIs. After the cells were cultured for another 30 h, the resulting firefly and Renilla luciferase activities were measured using a Dual Luciferase Reporter kit (Promega) and a Veritas microplate luminometer (Turner Biosystems).
When the cells reached >90% confluency, they were removed by trypsinization and diluted to a final volume of 50 mL medium. This cell suspension was then plated into clear-bottom, white-walled 384-well plates using a Titertek Multidrop dispenser (50 μL/well) and the cells were cultured until they reached confluency (3-4 days). […] The plates were then placed into an automated Staccato system (Caliper Life Sciences), which includes an automated CO2 incubator. An automated protocol was then run, in 3 which a Multidrop dispenser added 10 μL of a SAG solution in 0.5% CS medium (final SAG concentration of 500 nM) to columns 1-22 and 100 nL of each compound solution was added to the plates using a V&P Scientific pin tool, resulting in a final compound screening concentration of 10 μM. The SAG-free wells were used as negative controls. After 28-32 h, the assay medium was manually removed and the plates were frozen. To assay the firefly luciferase activities, the plates were thawed and placed into a Twister II stacker in the Staccato system. Bright-Glo luciferase substrate (Promega) was added by the Multidrop dispenser and the plates were analyzed on an Analyst GT microplate reader (2 min in the dark, 0.2 sec integration/well; Molecular Devices). Hits were defined as compounds that reduce the firefly luciferase signal by at least 50% compared to inhibitor-free controls. Primary hits were then re-tested in duplicate in an eight-point, 1:1 serially diluted doseresponse curve with a starting concentration of 20 μM. In these experiments, the median inhibitory concentration (IC50) for both firefly and Renilla luciferase were determined using a Dual-Glo kit (Promega).

In experiment [4] the test system is Hh pathway. The experiment is described as follows: Shh-EGFP assay for Hh pathway activation. As to conditions: Shh-N-conditioned medium; HPIs at ten-fold their Shh-LIGHT2 IC50 or 30 μM, whichever lower. Format: cell-based. On the procedure:
Shh-EGFP assay for Hh pathway activation. A Gli-dependent enhanced green fluorescent protein reporter (Shh-EGFP) was generated by excising firefly luciferase cDNA from the 8XGliBs vector using NcoI/Hpal, and ligating in EGFP cDNA excised from the pEGFP-C1 vector (Clontech) by NcoI/Af/II digestion. […] The cells were grown to confluency and treated with DMEM containing 0.5% CS, 100 U/mL penicillin, 0.1 mg/mL streptomycin, and 5% Shh-N-conditioned medium for 30 h. Following Shh-N treatment, the adherent cultures were dissociated into single cells with 0.05% Trypsin-EDTA (300 μL/well; Invitrogen) for 5 min. The cells were then suspended in 1 mL of PBS containing 1% CS and sorted on a BD FACSAria (excitation: 488 nm; emission: 530/30 nm) to enrich for cells expressing EGFP in a Shh-N-responsive manner. […] To identify Shh-EGFP clones with maximum Shh-N-responsiveness, individual lines were seeded into 24-well plates (45,000 cell/well) and cultured for 48 h. The cells were then treated with DMEM containing 0.5% CS, 100 U/mL pencillin, 0.1 mg/mL streptomycin or the culture medium plus 5% Shh-N-conditioned medium. After 30 h, the adherent cultures were treated with 0.05% trypsin-EDTA (150 μL/well; Invitrogen) for 5 min to dissociate them into single cells. The cells were then resuspended in 500 μL of PBS containing 1% CS and analyzed on a BD FACSCalibur (excitation: 488 nm; emission: 530/30 nm). 10,000 cells were used to assess EGFP expression levels as a measure of Hh pathway activation, and the data was analyzed using FlowJo software (Tree Star). Clones with low basal EGFP levels and maximum Shh-Ninduced EGFP expression were selected for further use. To assess the inhibitory activities of the HPIs in the Shh-EGFP cells, a clonal line with maximum Shh-responsiveness was cultured in 24-well plates as described above. […] The resulting EGFP levels were then evaluated by FACS and quantified using the FlowJo software.

Setting [5] is: stimulated with 500 nM SAG, read-out: IC50 (uM) SAG/Shh-LIGHT2 cells.
Setting [6] is: stimulated with Shh-N-conditioned medium, read-out: IC50 (uM) Shh/Shh-LIGHT2 cells.

Read-outs that look alike come from different tables or passages of the source.

Smo, sequence (P56726 33-793): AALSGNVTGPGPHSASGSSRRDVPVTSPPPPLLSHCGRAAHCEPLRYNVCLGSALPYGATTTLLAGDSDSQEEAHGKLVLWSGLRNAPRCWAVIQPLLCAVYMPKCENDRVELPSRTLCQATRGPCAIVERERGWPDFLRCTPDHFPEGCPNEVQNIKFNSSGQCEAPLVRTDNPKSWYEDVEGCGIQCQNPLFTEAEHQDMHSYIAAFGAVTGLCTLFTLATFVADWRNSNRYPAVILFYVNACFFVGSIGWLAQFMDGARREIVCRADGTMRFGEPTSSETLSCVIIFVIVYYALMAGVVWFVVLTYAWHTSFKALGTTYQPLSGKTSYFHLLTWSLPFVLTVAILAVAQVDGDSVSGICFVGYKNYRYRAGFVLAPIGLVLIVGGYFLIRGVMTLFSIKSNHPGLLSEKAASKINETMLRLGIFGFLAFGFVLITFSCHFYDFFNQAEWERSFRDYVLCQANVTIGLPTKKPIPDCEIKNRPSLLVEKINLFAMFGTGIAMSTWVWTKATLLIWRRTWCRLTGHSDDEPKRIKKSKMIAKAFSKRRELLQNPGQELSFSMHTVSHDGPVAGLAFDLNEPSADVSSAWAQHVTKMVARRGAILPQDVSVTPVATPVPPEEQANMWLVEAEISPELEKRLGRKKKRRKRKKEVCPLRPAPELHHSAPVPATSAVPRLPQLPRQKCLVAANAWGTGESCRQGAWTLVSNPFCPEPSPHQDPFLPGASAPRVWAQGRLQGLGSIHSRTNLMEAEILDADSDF

As to `CN1CCN(C2Cc3ccccc3Sc3ccccc32)CC1` (stereo not shown) [Compound 13], the BODIPY-cyclopamine competition entry in experiment [1] is on record as “No”. Moreover, the IC50 was 2.5 µM in experiment [2], 1.6 µM in experiment [3] (setting [5]) and 1.4 µM in experiment [3] (setting [6]). Moreover, the “% Inhibition Shh-GFP cells” value in experiment [4] was 78.3%.
For `CC(C)(C)N(CCNS(=O)(=O)c1ccc(-c2cc(C(F)(F)F)no2)s1)Cc1ccco1` [Compound 12], the BODIPY-cyclopamine competition entry in experiment [1] is given as “No”. In addition, the IC50 in experiment [2] was 0.25 µM; in experiment [3] (setting [5]), 2 µM; in experiment [3] (setting [6]) it was 2 µM. Moreover, the “% Inhibition Shh-GFP cells” value in experiment [4] is listed as 87.5%.
